Earlier results on 2 molecules are cited in US20070026026A1 (priority 2005, published 2007).

The conditions of data set [1]: room temperature; cited from earlier work.
The next data set concerns the target T1, AT1 receptor (Homo sapiens, UniProt P30556).
T1 sequence (P30556 1-359): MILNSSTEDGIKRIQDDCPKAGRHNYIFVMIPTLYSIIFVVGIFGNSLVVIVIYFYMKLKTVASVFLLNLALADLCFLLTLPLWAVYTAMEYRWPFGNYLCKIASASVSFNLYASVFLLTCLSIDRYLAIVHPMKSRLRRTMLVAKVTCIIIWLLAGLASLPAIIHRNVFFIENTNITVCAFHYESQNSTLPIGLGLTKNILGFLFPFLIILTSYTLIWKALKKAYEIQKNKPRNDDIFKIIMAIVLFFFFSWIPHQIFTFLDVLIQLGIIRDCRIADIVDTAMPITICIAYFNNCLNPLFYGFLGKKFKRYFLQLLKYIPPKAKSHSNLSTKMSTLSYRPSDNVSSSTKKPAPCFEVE
The following applies: cited from earlier work.

For another data set, the target named is cytochrome P450 2C9 (Homo sapiens, UniProt P11712). The following applies: in vitro studies; cited from earlier work.
Sequence of cytochrome P450 2C9 (P11712 whole entry): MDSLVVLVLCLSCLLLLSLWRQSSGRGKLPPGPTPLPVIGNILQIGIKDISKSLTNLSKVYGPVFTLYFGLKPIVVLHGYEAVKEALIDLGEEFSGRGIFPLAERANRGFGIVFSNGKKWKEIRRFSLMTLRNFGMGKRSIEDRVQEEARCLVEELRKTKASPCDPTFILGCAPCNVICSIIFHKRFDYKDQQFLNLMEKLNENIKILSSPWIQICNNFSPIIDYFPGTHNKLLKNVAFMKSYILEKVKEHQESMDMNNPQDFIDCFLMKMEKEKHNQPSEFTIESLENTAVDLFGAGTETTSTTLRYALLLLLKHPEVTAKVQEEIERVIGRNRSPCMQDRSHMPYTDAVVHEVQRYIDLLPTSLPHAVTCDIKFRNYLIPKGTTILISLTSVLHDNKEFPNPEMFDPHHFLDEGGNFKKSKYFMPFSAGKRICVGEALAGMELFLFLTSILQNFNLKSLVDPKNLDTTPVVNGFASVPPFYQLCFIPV
For data set [2] the following is noted: cited from earlier work.
For a further data set, the target named is cytochrome P450 3A4 (Homo sapiens, UniProt P08684). The following applies: in vitro studies; cited from earlier work.
Sequence of cytochrome P450 3A4 (P08684 whole entry): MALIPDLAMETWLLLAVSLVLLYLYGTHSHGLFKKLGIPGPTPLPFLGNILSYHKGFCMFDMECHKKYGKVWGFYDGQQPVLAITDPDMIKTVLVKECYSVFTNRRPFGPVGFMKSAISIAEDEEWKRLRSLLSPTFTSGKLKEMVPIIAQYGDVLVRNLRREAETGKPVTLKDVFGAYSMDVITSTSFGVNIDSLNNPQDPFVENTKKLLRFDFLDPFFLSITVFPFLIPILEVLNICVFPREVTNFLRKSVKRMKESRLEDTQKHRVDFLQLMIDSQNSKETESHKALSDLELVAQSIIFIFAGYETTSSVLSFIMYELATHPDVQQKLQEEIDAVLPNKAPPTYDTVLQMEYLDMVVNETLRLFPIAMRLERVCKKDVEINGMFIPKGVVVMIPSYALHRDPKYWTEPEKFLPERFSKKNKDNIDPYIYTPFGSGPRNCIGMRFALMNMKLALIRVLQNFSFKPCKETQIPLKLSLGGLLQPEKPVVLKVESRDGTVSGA

Take `CCCCc1nc(Cl)c(CO)n1Cc1ccc(-c2ccccc2-c2nnn[n-]2)cc1.[K+]` [Form I]: in data set [1], the “thermodynamic stability of the polymorph” value is reported as “more thermodynamically stable polymorph”.
Take `CCCCc1nc(Cl)c(CO)n1Cc1ccc(-c2ccccc2-c2nn[nH]n2)cc1` [losartan]: the “partial agonist activity at the AT1 receptor” value on AT1 receptor is listed as “do not exhibit any partial agonist activity”. The “involvement in the biotransformation of losartan to its metabolites” value at cytochrome P450 2C9 is on record as “involved”. For the same molecule, the terminal half-life result in data set [2] (in vivo) is “about 2 hours”. For the same molecule, in data set [2] (oral administration), the “maximum plasma concentrations of losartan and its active metabolite compared” value is on record as “approximately equal”; the systemic bioavailability entry was “approximately 33%”; the “time to mean peak concentrations” value is 1 h. Also, the “pharmacokinetics, dose dependence” value in data set [2] (oral losartan doses up to 200 mg) was “linear”. Besides, in data set [2] (with a meal), the “effect of a meal on AUC (decrease)” value is “about 10%”, the “effect of a meal on Cmax” value is reported as “decreases” and the “effect of a meal on absorption” value was “slows absorption”. Besides, on cytochrome P450 3A4, the “involvement in the biotransformation of losartan to its metabolites” value was “involved”.
